# Measured values as given in patent US20220227789A1, “NOVEL INDOLIZINE-2-CARBOXAMIDES ACTIVE AGAINST THE HEPATITIS B VIRUS (HBV)” (AiCuris GmbH & Co. KG, priority 2019, published 2022).
# How the values were obtained:
# [1] = target: T1, HBV core protein (C-terminal truncated, 149 aa assembly domain) (Hepatitis B virus genotype D subtype adw, UniProt P03147, C107A/C48A/C61A); assay: Biochemical capsid assembly assay (fluorescence quenching); conditions: BODIPY-FL labelled core protein, assembly started with NaCl, read after 6 min; read-out: Assembly Activity
# T1 construct: The C-terminal truncated core protein containing 149 amino acids of the N-terminal assembly domain; made in house; host or cells: E. coli BL21 (DE3) Rosetta2, plasmid pET21b
# T1 sequence (P03147 1-150, looked up, stated change not applied): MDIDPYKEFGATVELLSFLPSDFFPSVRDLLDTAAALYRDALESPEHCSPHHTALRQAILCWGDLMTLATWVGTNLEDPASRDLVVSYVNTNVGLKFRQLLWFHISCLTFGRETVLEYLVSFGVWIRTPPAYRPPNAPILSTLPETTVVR
# Method: Biochemical Capsid Assembly Assay
# The screening for assembly effector activity was done based on a fluorescence quenching assay published by Zlotnick et al. (2007). The C-terminal truncated core protein containing 149 amino acids of the N-terminal assembly domain fused to a unique cysteine residue at position 150 and was expressed in E. coli using the pET expression system (Merck Chemicals, Darmstadt). Purification of core dimer protein was performed using a sequence of size exclusion chromatography steps. In brief, the cell pellet from 1 L BL21 (DE3) Rosetta2 culture expressing the coding sequence of core protein cloned NdeI/XhoI into expression plasmid pET21b was treated for 1 h on ice with a native lysis buffer (Qproteome Bacterial Protein Prep Kit; Qiagen, Hilden). After a centrifugation step the supernatant was precipitated during 2 h stirring on ice with 0.23 g/ml of solid ammonium sulfate. Following further centrifugation the resulting pellet was resolved in buffer A (100 mM Tris, pH 7.5; 100 mM NaCl; 2 mM DTT) and was subsequently loaded onto a buffer A equilibrated CaptoCore 700 column (GE HealthCare, Frankfurt). The column flow through containing the assembled HBV capsid was dialyzed against buffer N (50 mM NaHCO3 pH 9.6; 5 mM DTT) before urea was added to a final concentration of 3M to dissociate the capsid into core dimers for 1.5 h on ice. The protein solution was then loaded onto a 1 L Sephacryl 5300 column. After elution with buffer N core dimer containing fractions were identified by SDS-PAGE and subsequently pooled and dialyzed against 50 mM HEPES pH 7.5; 5 mM DTT. To improve the assembly capacity of the purified core dimers a second round of assembly and disassembly starting with the addition of 5 M NaCl and including the size exclusion chromatography steps described above was performed. From the last chromatography step core dimer containing fractions were pooled and stored in aliquots at concentrations between 1.5 to 2.0 mg/ml at −80° C.
# Immediately before labelling the core protein was reduced by adding freshly prepared DTT in a final concentration of 20 mM. After […] on ice storage buffer and DTT was removed using a Sephadex G-25 column (GE HealthCare, Frankfurt) and 50 mM HEPES, pH 7.5. For labelling 1.6 mg/ml core protein was incubated at 4° C. and darkness overnight with BODIPY-FL maleimide (Invitrogen, Karlsruhe) in a final concentration of 1 mM. After labelling the free dye was removed by an additional desalting step using a Sephadex G-25 column. Labelled core dimers were stored in aliquots at 4° C. In the dimeric state the fluorescence signal of the labelled core protein is high and is quenched during the assembly of the core dimers to high molecular capsid structures. The screening assay was performed in black 384 well microtiter plates in a total assay volume of 10 μl using 50 mM HEPES pH 7.5 and 1.0 to 2.0 μM labelled core protein. Each screening compound was added in 8 different concentrations using a 0.5 log-unit serial dilution starting at a final concentration of 100 μM, 31.6 μM or 10 μM, In any case the DMSO concentration over the entire microtiter plate was 0.5%. The assembly reaction was started by the injection of NaCl to a final concentration of […] which induces the assembly process to approximately 25% of the maximal quenched signal. 6 min after starting the reaction the fluorescence signal was measured using a Clariostar plate reader (BMG Labtech, Ortenberg) with an excitation of 477 nm and an emission of 525 nm. As 100% and 0% assembly control HEPES buffer containing 2.5 M and 0 M NaCl was used. Experiments were performed thrice in triplicates. EC50 values were calculated by non-linear regression analysis using the Graph Pad Prism 6 software (GraphPad Software, La Jolla, USA).
# HBV = HBV replication assay: HBV DNA from the supernatants of HepAD38 cells; format: cell-based; conditions: Hepatitis B virus, 144 h, HBV DNA in supernatant by qPCR at day 6, read-out: Cell Activity
# Method: Determination of HBV DNA from the Supernatants of HepAD38 Cells
# The anti-HBV activity was analysed in the stable transfected cell line HepAD38, which has been described to secrete high levels of HBV virion particles (Ladner et al., 1997). In brief, HepAD38 cells were cultured at 37° C. at 5% CO2 and 95% humidity in 200 μl maintenance medium, which was Dulbecco's modified Eagle's medium/Nutrient Mixture F-12 (Gibco, Karlsruhe), 10% fetal bovine serum (PAN Biotech Aidenbach) supplemented with 50 μg/ml penicillin/streptomycin (Gibco, Karlsruhe), 2 mM L-glutamine (PAN Biotech, Aidenbach), 400 μg/ml G418 (AppliChem, Darmstadt) and 0.3 μg/ml tetracycline. Cells were subcultured once a week in a 1:5 ratio, but were usually not passaged more than ten times. For the assay 60,000 cells were seeded in maintenance medium without any tetracycline into each well of a 96-well plate and treated with serial half-log dilutions of test compound. To minimize edge effects the outer 36 wells of the plate were not used but were filled with assay medium. On each assay plate six wells for the virus control (untreated HepAD38 cells) and six wells for the cell control (HepAD38 cells treated with 0.3 μg/ml tetracycline) were allocated, respectively. In addition, one plate set with reference inhibitors like BAY 41-4109, entecavir, and lamivudine instead of screening compounds were prepared in each experiment. In general, experiments were performed thrice in triplicates. At day 6 HBV DNA from 100 μl filtrated cell culture supernatant (AcroPrep Advance 96 Filter Plate, […] Supor membran, PALL GmbH, Dreieich) was automatically purified on the MagNa Pure LC instrument using the MagNA Pure 96 DNA and Viral NA Small Volume Kit (Roche Diagnostics, Mannheim) according to the instructions of the manufacturer. EC50 values were calculated from relative copy numbers of HBV DNA In brief, 5 μl of the 100 μl eluate containing HBV DNA were subjected to PCR LC480 Probes Master Kit (Roche) together with 1 μM antisense primer […], 0.5 μM sense primer […], 0.3 μM hybprobes […]-FL and LC640-[…]-PH (TIBMolBiol, Berlin) to a final volume of […]. The PCR was performed on the Light Cycler 480 real time system (Roche Diagnostics, Mannheim) using the following protocol: Pre-incubation for 1 min at 95° C., amplification: 40 cycles×(10 sec at 95° C., 50 sec at 60° C., 1 sec at 70° C.), cooling for 10 sec at 40° C. Viral load was quantitated against known standards using HBV plasmid DNA of pCH-9/3091 (Nassal et al., 1990, Cell 63: 1357-1363) and the LightCycler 480 SW 1.5 software (Roche Diagnostics, Mannheim) and EC50 values were calculated using non-linear regression with GraphPad Prism 6 (GraphPad Software Inc., La Jolla, USA).
Compound,IC50 [1] [µM],EC50 (HBV) [µM]
"COCC1(N(C)C(=O)c2[nH]nc3c2CN(C(=O)c2cc4c(Cl)cccn4c2)CC3)CC1 [Example 3, 5-(8-chloroindolizine-2-carbonyl)-N-[1-(methoxymethyl)cyclopropyl]-N-methyl-2H,4H,5H,6H,7H-pyrazolo[4,3-c]pyridine-3-carboxamide]",< 5,< 1
"COCC1(N(C)C(=O)c2[nH]nc3c2CN(C(=O)c2cc4cccc(Cl)n4c2)CC3)CC1 [Example 4, 5-(5-chloroindolizine-2-carbonyl)-N-[1-(methoxymethyl)cyclopropyl]-N-methyl-2H,4H,5H,6H,7H-pyrazolo[4,3-c]pyridine-3-carboxamide]",5 to 10,< 1
"COCC1(N(C)C(=O)c2[nH]nc3c2CN(C(=O)c2cc4c(F)cc(F)cn4c2)CC3)CC1 [Example 5, 5-(6,8-difluoroindolizine-2-carbonyl)-N-[1-(methoxymethyl)cyclopropyl]-N-methyl-2H,4H,5H,6H,7H-pyrazolo[4,3-c]pyridine-3-carboxamide]",< 5,< 1
"CN(C(=O)c1cnn2c1CN(C(=O)c1cc3c(Cl)cccn3c1)CC2)C1(COC(F)F)CC1 [Example 6, 5-(8-chloroindolizine-2-carbonyl)-N-{1-[(difluoromethoxy)methyl]cyclopropyl}-N-methyl-4H,5H,6H,7H-pyrazolo[1,5-a]pyrazine-3-carboxamide]",< 5,< 1
"CN(C(=O)c1cnn2c1CN(C(=O)c1cc3c(F)cc(F)cn3c1)CC2)C1(COC(F)F)CC1 [Example 7, 5-(6,8-difluoroindolizine-2-carbonyl)-N-{1-[(difluoromethoxy)methyl]cyclopropyl}-N-methyl-4H,5H,6H,7H-pyrazolo[1,5-a]pyrazine-3-carboxamide]",< 5,< 1
"CN(C(=O)c1cnn2c1CN(C(=O)c1cc3cccc(Cl)n3c1)CC2)C1(COC(F)F)CC1 [Example 8, 5-(5-chloroindolizine-2-carbonyl)-N-{1-[(difluoromethoxy)methyl]cyclopropyl}-N-methyl-4H,5H,6H,7H-pyrazolo[1,5-a]pyrazine-3-carboxamide]",< 5,1 to 10
"CC1Cn2ncc(C(=O)N(C)C3(COC(F)F)CC3)c2CN1C(=O)c1cc2c(Cl)cccn2c1 (stereo not shown) [Example 9, 5-(8-chloroindolizine-2-carbonyl)-N-{1-[(difluoromethoxy)methyl]cyclopropyl}-N,6-dimethyl-4H,5H,6H,7H-pyrazolo[1,5-a]pyrazine-3-carboxamide]",< 5,< 1
"CC1Cc2[nH]nc(-c3cscn3)c2CN1C(=O)c1cc2c(Cl)cccn2c1 (stereo not shown) [Example 10, 8-chloro-2-[6-methyl-3-(1,3-thiazol-4-yl)-1H,4H,5H,6H,7H-pyrazolo[4,3-c]pyridine-5-carbonyl]indolizine]",< 5,< 1
"CC1Cc2[nH]nc(-c3cscn3)c2CN1C(=O)c1cc2cccc(C(F)(F)F)n2c1 (stereo not shown) [Example 12, 2-[6-methyl-3-(1,3-thiazol-4-yl)-1H,4H,5H,6H,7H-pyrazolo[4,3-c]pyridine-5-carbonyl]-5-(trifluoromethyl)indolizine]",< 100,1 to 10
"Cc1cccc2cc(C(=O)N3Cc4c(-c5cscn5)n[nH]c4CC3C)cn12 (stereo not shown) [Example 16, 5-methyl-2-[6-methyl-3-(1,3-thiazol-4-yl)-1H,4H,5H,6H,7H-pyrazolo[4,3-c]pyridine-5-carbonyl]indolizine]",5 to 10,1 to 10
"Cc1cccn2cc(C(=O)N3Cc4c(-c5cscn5)n[nH]c4CC3C)cc12 (stereo not shown) [Example 17, 8-methyl-2-[6-methyl-3-(1,3-thiazol-4-yl)-1H,4H,5H,6H,7H-pyrazolo[4,3-c]pyridine-5-carbonyl]indolizine]",< 5,< 1
"CC1Cc2[nH]nc(-c3cscn3)c2CN1C(=O)c1cc2c(Cl)cc(Cl)cn2c1 (stereo not shown) [Example 18, 6,8-dichloro-2-[6-methyl-3-(1,3-thiazol-4-yl)-1H,4H,5H,6H,7H-pyrazolo[4,3-c]pyridine-5-carbonyl]indolizine]",5 to 10,< 1
"CC1Cc2[nH]nc(-c3cscn3)c2CN1C(=O)c1cc2cc(Cl)ccn2c1 (stereo not shown) [Example 19, 7-chloro-2-[6-methyl-3-(1,3-thiazol-4-yl)-1H,4H,5H,6H,7H-pyrazolo[4,3-c]pyridine-5-carbonyl]indolizine]",5 to 10,< 1
"CC1Cc2[nH]nc(-c3cscn3)c2CN1C(=O)c1cc2cccc(Cl)n2c1 (stereo not shown) [Example 20, 5-chloro-2-[6-methyl-3-(1,3-thiazol-4-yl)-1H,4H,5H,6H,7H-pyrazolo[4,3-c]pyridine-5-carbonyl]indolizine]",5 to 10,< 1
"CC(NC(=O)c1[nH]nc2c1CN(C(=O)c1cc3c(Cl)cccn3c1)CC2)C(F)(F)F (stereo not shown) [Example 49, 5-(8-chloroindolizine-2-carbonyl)-N-(1,1,1-trifluoropropan-2-yl)-2H,4H,5H,6H,7H-pyrazolo[4,3-c]pyridine-3-carboxamide]",–,1 to 10
"CC(NC(=O)c1cnn2c1CN(C(=O)c1cc3ccccn3c1)CC2)C(F)(F)F (stereo not shown) [Example 50, 5-(indolizine-2-carbonyl)-N-(1,1,1-trifluoropropan-2-yl)-4H,5H,6H,7H-pyrazolo[1,5-a]pyrazine-3-carboxamide]",–,< 1
"CC(NC(=O)c1[nH]nc2c1CN(C(=O)c1cc3ccccn3c1)CC2)C(F)(F)F (stereo not shown) [Example 52, 5-(indolizine-2-carbonyl)-N-[1,1,1-trifluoropropan-2-yl]-2H,4H,5H,6H,7H-pyrazolo[4,3-c]pyridine-3-carboxamide]",–,< 100
